These are literature values, as cited in patent US4814324A, “Sterol inhibitors of testosterone 5α-reductase” (Merck & Co., Inc., priority 1987, dated 1989).

Molecules are shown by their SMILES.

Series [1] relates to female hamster flank organ. To be noted: Voigt and Hsia; for enlargement of the female hamster flank organ: topical application alone; for response elicited by 5α-dihydrotestosterone (flank organ enlargement) / response elicited by testosterone (flank organ enlargement): topical; for response elicited by 5α-dihydrotestosterone (flank organ enlargement): concomitant with 5α-dihydrotestosterone; for response elicited by testosterone (flank organ enlargement): concomitant with testosterone.

Series [2] deals with testosterone-5α-reductase. To be noted: Voigt and Hsia, Endocrinology, 92, 1216 (1973).

As to `C[C@]12CC[C@H]3[C@@H](CCC4=CC(=O)CC[C@@]43C)[C@@H]1CC[C@@H]2O` [testosterone], in series [1], the “enlargement of the female hamster flank organ” value was “caused enlargement of the female hamster flank organ”.
In the case of `C[C@]12CCC(=O)C[C@@H]1CC[C@@H]1[C@@H]2CC[C@]2(C)[C@@H](O)CC[C@@H]12` [5α-dihydrotesterone, 5α-dihydrotestosterone], in series [1], the “enlargement of the female hamster flank organ” value was “caused enlargement of the female hamster flank organ”.
In the case of `COC(=O)[C@H]1CC[C@H]2[C@@H]3CCC4=CC(=O)CC[C@]4(C)[C@H]3CC[C@]12C` [methyl 4-androsten-3-one-17β-carboxylate], the “testosterone-5α-reductase inhibition in vitro” value in series [2] was “active inhibitors”. In series [1], the “response elicited by 5α-dihydrotestosterone (flank organ enlargement)” value is reported as “did not inhibit the response elicited by 5α-dihydrotestosterone” and the “response elicited by testosterone (flank organ enlargement)” value is recorded as “inhibited the response elicited by testosterone”.
For `C[C@]12CC[C@H]3[C@@H](CCC4=CC(=O)CC[C@@]43C)[C@@H]1CC[C@@H]2C(=O)O` [4-androsten-3-one-17β-carboxylic acid], the “testosterone-5α-reductase inhibition in vitro” value in series [2] is recorded as “active inhibitors”. Besides, in series [1], the “response elicited by 5α-dihydrotestosterone (flank organ enlargement)” value is recorded as “did not inhibit the response elicited by 5α-dihydrotestosterone” and the “response elicited by testosterone (flank organ enlargement)” value is on record as “inhibited the response elicited by testosterone”.
